Data reported in patent US20240270762A1, “PENICILLIN-BINDING PROTEIN INHIBITORS” (priority 2021, published 2024).

Target: T1, A. baumannii PBP1a (Acinetobacter baumannii, UniProt A0ABX6CK30)
T1 sequence (A0ABX6CK30 1-851): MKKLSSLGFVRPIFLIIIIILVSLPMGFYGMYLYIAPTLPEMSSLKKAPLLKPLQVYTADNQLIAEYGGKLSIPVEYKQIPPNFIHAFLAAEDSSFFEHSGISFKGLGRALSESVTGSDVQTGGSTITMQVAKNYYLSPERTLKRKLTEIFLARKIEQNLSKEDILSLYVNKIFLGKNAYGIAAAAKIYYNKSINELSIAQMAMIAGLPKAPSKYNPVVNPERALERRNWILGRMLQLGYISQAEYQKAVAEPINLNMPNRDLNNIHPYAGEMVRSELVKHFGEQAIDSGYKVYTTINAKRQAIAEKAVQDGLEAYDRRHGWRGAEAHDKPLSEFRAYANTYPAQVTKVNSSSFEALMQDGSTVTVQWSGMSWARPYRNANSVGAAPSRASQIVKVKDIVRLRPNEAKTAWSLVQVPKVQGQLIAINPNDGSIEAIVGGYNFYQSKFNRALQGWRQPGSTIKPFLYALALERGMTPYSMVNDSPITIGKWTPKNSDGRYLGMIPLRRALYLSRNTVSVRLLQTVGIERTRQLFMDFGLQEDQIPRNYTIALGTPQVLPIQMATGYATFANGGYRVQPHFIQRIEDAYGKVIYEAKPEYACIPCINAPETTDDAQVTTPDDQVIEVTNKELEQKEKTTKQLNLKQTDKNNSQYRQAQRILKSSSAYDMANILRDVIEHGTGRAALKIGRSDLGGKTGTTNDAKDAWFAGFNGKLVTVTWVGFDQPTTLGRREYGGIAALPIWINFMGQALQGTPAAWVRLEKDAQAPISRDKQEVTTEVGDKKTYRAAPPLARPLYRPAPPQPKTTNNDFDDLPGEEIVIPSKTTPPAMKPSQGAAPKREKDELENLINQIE
Test: Bocillin-FL competition binding via gel filtration, A. baumannii PBP1a
Settings: competition binding assay using Bocillin-FL via gel filtration; read-out: A. baumannii PBP1a Potency
Outline: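 Competitive equilibrium binding with Bocillin-FL reporter: PBP pre-incubated with inhibitor dilutions, Bocillin-FL added, 15 min incubation. Labelled enzyme isolated by size-exclusion spin plates, fluorescence measured; EC50 obtained by fitting bound fraction against inhibitor concentration with a Hill-coefficient model.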

| Compound | EC50 [µM] |
| --- | --- |
| O=C(O)c1c(F)ccc2c1OB(O)[C@@H](NC(=O)C(NC(=O)N1CCN(C3CCN(C(=O)c4c(F)ccc(O)c4F)CC3)C(=O)C1=O)c1cc(F)c(O)c(O)c1Cl)C2 (stereo partly drawn) [Example 308, (3R)-3-(2-(2-chloro-5-fluoro-3,4-dihydroxyphenyl)-2-(4-(1-(2,6-difluoro-3-hydroxybenzoyl)piperidin-4-yl)-2,3-dioxopiperazine-1-carboxamido)acetamido)-7-fluoro-2-hydroxy-3,4-dihydro-2H-benzo[e][1,2]oxaborinine-8-carboxylic acid] | 10 to 50 |
| O=C(O)c1c(F)ccc2c1OB(O)[C@@H](NC(=O)C(NC(=O)N1CCN(C3CCN(C(=O)c4cc(O)cc(O)c4)CC3)C(=O)C1=O)c1cc(F)c(O)c(O)c1Cl)C2 (stereo partly drawn) [Example 309, (3R)-3-(2-(2-chloro-5-fluoro-3,4-dihydroxyphenyl)-2-(4-(1-(3,5-dihydroxybenzoyl)piperidin-4-yl)-2,3-dioxopiperazine-1-carboxamido)acetamido)-7-fluoro-2-hydroxy-3,4-dihydro-2H-benzo[e][1,2]oxaborinine-8-carboxylic acid] | 10 to 50 |
| CN(CCCN1CCN(C(=O)NC(C(=O)N[C@H]2Cc3ccc(F)c(C(=O)O)c3OB2O)c2cc(F)c(O)c(O)c2Cl)C(=O)C1=O)C(=O)c1cccc(O)c1 (stereo partly drawn) [Example 310, (3R)-3-(2-(2-chloro-5-fluoro-3,4-dihydroxyphenyl)-2-(4-(3-(3-hydroxy-N-methylbenzamido)propyl)-2,3-dioxopiperazine-1-carboxamido)acetamido)-7-fluoro-2-hydroxy-3,4-dihydro-2H-benzo[e][1,2]oxaborinine-8-carboxylic acid] | 50 to 250 |
| O=C(NCCCN1CCN(C(=O)NC(C(=O)N[C@H]2Cc3ccc(F)c(C(=O)O)c3OB2O)c2cc(F)c(O)c(O)c2Cl)C(=O)C1=O)c1ccncc1F (stereo partly drawn) [Example 400, (3R)-3-(2-(2-chloro-5-fluoro-3,4-dihydroxyphenyl)-2-(4-(3-(3-fluoroisonicotinamido)propyl)-2,3-dioxopiperazine-1-carboxamido)acetamido)-7-fluoro-2-hydroxy-3,4-dihydro-2H-benzo[e][1,2]oxaborinine-8-carboxylic acid] | 10 to 50 |
| O=C(NCCCN1CCN(C(=O)NC(C(=O)N[C@H]2Cc3ccc(F)c(C(=O)O)c3OB2O)c2cc(F)c(O)c(O)c2Cl)C(=O)C1=O)c1c(F)cncc1F (stereo partly drawn) [Example 402, (3R)-3-(2-(2-chloro-5-fluoro-3,4-dihydroxyphenyl)-2-(4-(3-(3,5-difluoroisonicotinamido)propyl)-2,3-dioxopiperazine-1-carboxamido)acetamido)-7-fluoro-2-hydroxy-3,4-dihydro-2H-benzo[e][1,2]oxaborinine-8-carboxylic acid] | < 10 |
| O=C(NCCCN1CCN(C(=O)NC(C(=O)N[C@H]2Cc3ccc(F)c(C(=O)O)c3OB2O)c2cc(F)c(O)c(O)c2Cl)C(=O)C1=O)c1c(F)cncc1Cl (stereo partly drawn) [Example 403, (3R)-3-(2-(2-chloro-5-fluoro-3,4-dihydroxyphenyl)-2-(4-(3-(3-chloro-5-fluoroisonicotinamido)propyl)-2,3-dioxopiperazine-1-carboxamido)acetamido)-7-fluoro-2-hydroxy-3,4-dihydro-2H-benzo[e][1,2]oxaborinine-8-carboxylic acid] | 10 to 50 |
| O=C(NCCCN1CCN(C(=O)NC(C(=O)N[C@H]2Cc3ccc(F)c(C(=O)O)c3OB2O)c2cc(F)c(O)c(O)c2Cl)C(=O)C1=O)c1cc(F)c(F)c(O)c1F (stereo partly drawn) [Example 404, (3R)-3-(2-(2-chloro-5-fluoro-3,4-dihydroxyphenyl)-2-(2,3-dioxo-4-(3-(2,4,5-trifluoro-3-hydroxybenzamido)propyl)piperazine-1-carboxamido)acetamido)-7-fluoro-2-hydroxy-3,4-dihydro-2H-benzo[e][1,2]oxaborinine-8-carboxylic acid] | < 10 |
| O=C(NCCCN1CCN(C(=O)NC(C(=O)N[C@H]2Cc3ccc(F)c(C(=O)O)c3OB2O)c2cc(F)c(O)c(O)c2Cl)C(=O)C1=O)c1cccc(O)c1F (stereo partly drawn) [Example 406, (3R)-3-(2-(2-chloro-5-fluoro-3,4-dihydroxyphenyl)-2-(4.-(3-(2-fluoro-3-hydroxybenzamido)propyl)-2,3-dioxopiperazine-1-carboxamido)acetamido)-7-fluoro-2-hydroxy-3,4-dihydro-2H-benzo[e][1,2]oxaborinine-8-carboxylic acid] | < 10 |
| O=C(NCCCN1CCN(C(=O)NC(C(=O)N[C@H]2Cc3ccc(F)c(C(=O)O)c3OB2O)c2cc(F)c(O)c(O)c2Cl)C(=O)C1=O)c1cc(O)ccc1F (stereo partly drawn) [Example 407, (3R)-3-(2-(2-chloro-5-fluoro-3,4-dihydroxyphenyl)-2-(4-(3-(2-fluoro-5-hydroxybenzamido)propyl)-2,3-dioxopiperazine-1-carboxamido)acetamido)-7-fluoro-2-hydroxy-3,4-dihydro-2H-benzo[e][1,2]oxaborinine-8-carboxylic acid] | < 10 |
| O=C(NCCCN1CCN(C(=O)NC(C(=O)N[C@H]2Cc3ccc(F)c(C(=O)O)c3OB2O)c2cc(F)c(O)c(O)c2Cl)C(=O)C1=O)c1cc(O)ccc1Cl (stereo partly drawn) [Example 408, (3R)-3-(2-(2-chloro-5-fluoro-3,4-dihydroxyphenyl)-2-(4-(3-(2-chloro-5-hydroxybenzamido)propyl)-2,3-dioxopiperazine-1-carboxamido)acetamido)-7-fluoro-2-hydroxy-3,4-dihydro-2H-benzo[e][1,2]oxaborinine-8-carboxylic acid] | < 10 |
| O=C(NCCCN1CCN(C(=O)NC(C(=O)N[C@H]2Cc3ccc(F)c(C(=O)O)c3OB2O)c2cc(F)c(O)c(O)c2Cl)C(=O)C1=O)c1ccc(F)c(O)c1 (stereo partly drawn) [Example 409, (3R)-3-(2-(2-chloro-5-fluoro-3,4-dihydroxyphenyl)-2-(4-(3-(4-fluoro-3-hydroxybenzamido)propyl)-2,3-dioxopiperazine-1-carboxamido)acetamido)-7-fluoro-2-hydroxy-3,4-dihydro-2H-benzo[e][1,2]oxaborinine-8-carboxylic acid] | < 10 |
| O=C(NCCCN1CCN(C(=O)NC(C(=O)N[C@H]2Cc3ccc(F)c(C(=O)O)c3OB2O)c2cc(F)c(O)c(O)c2Cl)C(=O)C1=O)c1cc(O)cc(F)c1 (stereo partly drawn) [Example 410, (3R)-3-(2-(2-chloro-5-fluoro-3,4-dihydroxyphenyl)-2-(4-(3-(3-fluoro-5-hydroxybenzamido)propyl)-2,3-dioxopiperazine-1-carboxamido)acetamido)-7-fluoro-2-hydroxy-3,4-dihydro-2H-benzo[e][1,2]oxaborinine-8-carboxylic acid] | < 10 |
| O=C(NCCCN1CCN(C(=O)NC(C(=O)N[C@H]2Cc3ccc(F)c(C(=O)O)c3OB2O)c2cc(F)c(O)c(O)c2Cl)C(=O)C1=O)c1ccc(F)c(O)c1F (stereo partly drawn) [Example 411, (3R)-3-(2-(2-chloro-5-fluoro-3,4-dihydroxyphenyl)-2-(4-(3-(2,4-difluoro-3-hydroxybenzamido)propyl)-2,3-dioxopiperazine-1-carboxamido)acetamido)-7-fluoro-2-hydroxy-3,4-dihydro-2H-benzo[e][1,2]oxaborinine-8-carboxylic acid] | < 10 |
| O=C(NCCCN1CCN(C(=O)NC(C(=O)N[C@H]2Cc3ccc(F)c(C(=O)O)c3OB2O)c2cc(F)c(O)c(O)c2Cl)C(=O)C1=O)c1ccc(F)c(O)c1Cl (stereo partly drawn) [Example 412, (3R)-3-(2-(4-(3-(2-chloro-4-fluoro-3-hydroxybenzamido)propyl)-2,3-dioxopiperazine-1-carboxamido)-2-(2-chloro-5-fluoro-3,4-dihydroxyphenyl)acetamido)-7-fluoro-2-hydroxy-3,4-dihydro-2H-benzo[e][1,2]oxaborinine-8-carboxylic acid] | < 10 |
| O=C(NCCCN1CCN(C(=O)NC(C(=O)N[C@H]2Cc3ccc(F)c(C(=O)O)c3OB2O)c2cc(F)c(O)c(O)c2Cl)C(=O)C1=O)c1c(F)ccc(O)c1F (stereo partly drawn) [Example 413, (3R)-3-(2-(2-chloro-5-fluoro-3,4-dihydroxyphenyl)-2-(4-(3-(2,6-difluoro-3-hydroxybenzamido)propyl)-2,3-dioxopiperazine-1-carboxamido)acetamido)-7-fluoro-2-hydroxy-3,4-dihydro-2H-benzo[e][1,2]oxaborinine-8-carboxylic acid] | < 10 |
| O=C(NCCCN1CCN(C(=O)NC(C(=O)N[C@H]2Cc3ccc(F)c(C(=O)O)c3OB2O)c2cc(F)c(O)c(O)c2Cl)C(=O)C1=O)c1c(F)ccc(O)c1Cl (stereo partly drawn) [Example 414, (3R)-3-(2-(2-chloro-5-fluoro-3,4-dihydroxyphenyl)-2-(4-(3-(2-chloro-6-fluoro-3-hydroxybenzamido)propyl)-2,3-dioxopiperazine-1-carboxamido)acetamido)-7-fluoro-2-hydroxy-3,4-dihydro-2H-benzo[e][1,2]oxaborinine-8-carboxylic acid] | < 10 |
